Where a SMILES comes first, the peptide text is derived from it. The star is where a group is joined. Cbz = O=C(OCc1ccccc1)*
Assay: Inhibition of NF-kappaB activation

SMILES	IC50 [nM]
Clc1ccc(CNc2ncnc3ccccc23)cc1	1830
O=[N+]([O-])c1ccc2ncnc(NCCc3ccc(Cl)cc3)c2c1	1520
O=[N+]([O-])c1ccc2c(NCCc3ccc(Cl)cc3)ncnc2c1	1760
Nc1ccc2c(NCCc3ccc(Cl)cc3)ncnc2c1	2200
Clc1ccc(CCNc2ncnc3ccccc23)cc1	630
Clc1ccc(CCNc2ncnc3ccc(Br)cc23)cc1	851
O=[N+]([O-])c1cc2c(NCCc3ccc(Cl)cc3)ncnc2cc1Cl	9060
Cc1ccc(S(=O)(=O)Nc2cccc3cccnc23)c([N+](=O)[O-])c1	2100
COc1cc(NS(=O)(=O)c2ccc(C)cc2N)c2ncccc2c1	1000
Nc1ccccc1S(=O)(=O)Nc1cccc2cccnc12	2000
Cc1ccc2cccc(NS(=O)(=O)c3ccccc3[N+](=O)[O-])c2n1	3800
Cc1ccc2cccc(NS(=O)(=O)c3ccc(Cl)s3)c2n1	1000
Cc1ccc2cccc(NS(=O)(=O)c3ccc(Br)s3)c2n1	1400
O=S(=O)(Nc1cccc2cccnc12)c1cccs1	3600
O=S(=O)(Nc1cccc2cccnc12)c1ccc(Cl)s1	1300
Cc1ccc2cccc(NS(=O)(=O)c3ccccc3N)c2n1	2800
Cc1ccc2cccc(NS(=O)(=O)c3ccc(C(F)(F)F)cc3[N+](=O)[O-])c2n1	1100
COc1cc(NS(=O)(=O)c2ccc(C)cc2[N+](=O)[O-])c2ncccc2c1	2100
COc1cnc2c3c(ccc2c1)-c1ccccc1S(=O)(=O)N3	2500
O=[N+]([O-])c1ccccc1S(=O)(=O)Nc1cccc2cccnc12	3200
O=S1(=O)Nc2c(ccc3cccnc23)-c2cc(F)ccc21	1700
COc1ccc(S(=O)(=O)Nc2cccc3ccc(C)nc23)c([N+](=O)[O-])c1	1000

SMILES	IC50 [nM]
Cc1ccc2c(c1)-c1ccc3cccnc3c1NS2(=O)=O	600
O=S1(=O)Nc2c(ccc3cccnc23)-c2cc(C(F)(F)F)ccc21	1000
COc1cc2cccnc2c2c1-c1cc(C)ccc1S(=O)(=O)N2	1200
COc1ccc2c(c1)-c1ccc3ccc(C)nc3c1NS2(=O)=O	2500
Cc1ccc2ccc3c(c2n1)NS(=O)(=O)c1ccc(C(F)(F)F)cc1-3	1200
COc1cc2ccc(C)nc2c2c1-c1cc(C)ccc1S(=O)(=O)N2	900
O=S(=O)(Nc1cccc2cccnc12)c1ccc(Br)s1	1100
Cc1ccc2cccc(NS(=O)(=O)c3cccc([N+](=O)[O-])c3)c2n1	900
Cc1ccc2ccc3c(c2n1)NS(=O)(=O)c1ccc(O)cc1-3	10000
COc1ccc2c(c1)-c1ccc3cccnc3c1NS2(=O)=O	1000
O=[N+]([O-])c1cc(C(F)(F)F)ccc1S(=O)(=O)Nc1cccc2cccnc12	3700
c1ccc(CCCNc2ncnc3ccccc23)cc1	2380
O=S1(=O)Nc2c(ccc3cccnc23)-c2ccccc21	1000
Cc1ccc([N+](=O)[O-])cc1S(=O)(=O)Nc1cccc2cccnc12	1600
O=S1(=O)Nc2c(ccc3cccnc23)-c2cc(Cl)ccc21	1100
Cc1ccc2ncnc(NCCc3ccc(Cl)cc3)c2c1	730
O=[N+]([O-])c1ccc(S(=O)(=O)Nc2cccc3cccnc23)cc1	1500
Nc1ccc2ncnc(NCCc3cccnc3)c2c1	8270
Nc1ccc2ncnc(NCCc3ccc(O)cc3)c2c1	3640
Nc1ccc2ncnc(NCCN3CCOCC3)c2c1	> 10000
Nc1ccc2ncnc(NCCC3CCCCC3)c2c1	685
Clc1ccc(Nc2ncnc3ccccc23)cc1	> 10000

SMILES	IC50 [nM]
Clc1ccc(CCNc2nccc3ccccc23)cc1	> 10000
Nc1ccc2ncnc(NCCc3ccc(F)cc3)c2c1	574
CC(=O)Nc1ccc2ncnc(NCCc3ccc(Cl)cc3)c2c1	4560
Nc1ccc2ncnc(NCCN3CCCCC3)c2c1	> 10000
NC(=O)c1ccc(CCNc2ncnc3ccc(N)cc23)cc1	7330
Clc1ccc(CCNc2ccnc3ccccc23)cc1	1390
Clc1ccc(CCCNc2ncnc3ccccc23)cc1	1400
CC(=O)Nc1ccc(CCNc2ncnc3ccc(N)cc23)cc1	5980
Clc1ccc(CCNc2ncnc3ccc(Oc4ccccc4)cc23)cc1	7340
Nc1ccc2ncnc(NCCc3ccc(S(N)(=O)=O)cc3)c2c1	> 10000
Clc1ccc(CCNc2nncc3ccccc23)cc1	> 10000
Nc1ccc2ncnc(NCCN3CCCC3)c2c1	3690
CN(C)C(=O)c1ccc(CCNc2ncnc3ccc(N)cc23)cc1	2590
COC(=O)C1[C@@H](O)[C@@]2(O)c3c(OC)cc(OC)cc3O[C@@]2(c2ccc3c(c2)OCO3)[C@@H]1c1ccccc1 (some centres not stated)	319
COC(=O)C1[C@@H](O)[C@@]2(O)c3c(OC)cc(OC)cc3O[C@@]2(c2ccc(OC)cc2)[C@@H]1c1ccccc1 (some centres not stated)	197
CC(C)c1cccc(C(C)C)c1N1C(=O)c2cccc(O)c2C1=O	4950
CC(C)c1cccc(C(C)C)c1N1C(=O)c2ccc(N)cc2C1=O	29500
COc1ccc([C@@]23Oc4cc(OC)cc(OC)c4[C@]2(O)[C@H](O)[C@H](C(N)=O)[C@H]3c2ccccc2)cc1 [DIDESMETHYLROCAGLAMIDE]	44
CC(C)C[C@@H](C=O)NC(=O)[C@H](CC(C)C)NC(=O)[C@H](CC(C)C)NC(=O)OCc1ccccc1 [MG-132] (Cbz-Leu-Leu-Leu-aldehyde)	715
COc1ccc([C@@]23Oc4cc(OC)cc(OC)c4[C@]2(O)[C@H](O)C[C@H]3c2ccccc2)cc1 [ROCAGLAOL]	499

The remaining lines, values ahead:

IC50 [nM]	SMILES
313	Oc1ccc2ncnc(NCCc3ccc(Cl)cc3)c2c1
344	Clc1ccc(CCNc2ncnc3ccc(Cl)cc23)cc1
176	Nc1ccc2ncnc(NCCc3ccc(Cl)cc3)c2c1
430	O=C1c2ccc(O)cc2C(=O)N1c1c(Br)cccc1Br
530	CC(C)c1cccc(C(C)C)c1N1C(=O)c2ccc(O)cc2C1=O
11	Nc1ccc2ncnc(NCCc3ccc(Oc4ccccc4)cc3)c2c1
40	C#CCOc1ccc(CCNc2ncnc3ccc(N)cc23)cc1
21	CCOc1ccc(CCNc2ncnc3ccc(N)cc23)cc1
12	C=CCOc1ccc(CCNc2ncnc3ccc(N)cc23)cc1
20	CCCOc1ccc(CCNc2ncnc3ccc(N)cc23)cc1
40	CC(C)Oc1ccc(CCNc2ncnc3ccc(N)cc23)cc1
210	Cc1ccc(CCNc2ncnc3ccc(N)cc23)cc1
2	CCCCCOc1ccc(CCNc2ncnc3ccc(N)cc23)cc1
155	COc1ccccc1CCNc1ncnc2ccc(N)cc12
207	Nc1ccc2ncnc(NCCc3ccc(Br)cc3)c2c1
4	CCCCCCOc1ccc(CCNc2ncnc3ccc(N)cc23)cc1
12	Nc1ccc2ncnc(NCCc3ccc(OCc4ccccn4)cc3)c2c1 [listing 1 of 2 here]
389	Nc1ccc2ncnc(NCCc3cccc(Cl)c3)c2c1
90	COc1ccc(CCNc2ncnc3ccc(N)cc23)cc1
14	Nc1ccc2ncnc(NCCc3ccc(OCc4ccccn4)cc3)c2c1 [listing 2 of 2 here]
210	COc1cccc(CCNc2ncnc3ccc(N)cc23)c1
243	COC(=O)C1[C@@H](O)[C@@]2(O)c3c(cc4c(c3OC)OCO4)O[C@@]2(c2ccc(OC)cc2)[C@@H]1c1ccccc1 (some centres not stated)
93	Nc1ccc2ncnc(NCCc3ccc(OCc4ccc5ccccc5n4)cc3)c2c1
311	Nc1ccc2ncnc(NCCc3ccccc3)c2c1
429	Nc1cc2c(NCCc3ccc(Cl)cc3)ncnc2cc1Cl
11	CCCCOc1ccc(CCNc2ncnc3ccc(N)cc23)cc1
254	Nc1ccc2ncnc(NCCc3ccccc3Cl)c2c1
38	Cc1csc2ncnc(NC3Cc4ccc(C(=O)N5CCOCC5)cc4C3)c12 (configuration not stated)

Source: ChEMBL document CHEMBL1156034, “The first pharmacophore model for potent NF-kappaB inhibitors” (Bioorg Med Chem Lett, 2009)
